Source: paper PMC8605905 (Oxidative Medicine and Cellular Longevity, 2021)
“Also recorded” adds a separate entry of the source.

Legend:
[1] = tested on: Acetylcholinesterase (AChE); test: AChE activity in Aβ-GFP cells; assay type: cell-based; settings: 5 μM, vs untreated cells
Protocol: Aβ-GFP or ∆K280 tauRD-DsRed SH-SY5Y cells were seeded into 6-well plates (5 × 10^5/well) and treated with retinoic acid, coumarin-chalcone derivatives, and doxycycline as previously described. On day 8, cells were collected and lysates were prepared with six freeze/thaw cycles. The supernatant was collected by centrifugation, followed by measurement of the caspase 1 activity in 50 μg aliquots of cell extract using the ICE fluorometric assay kit (BioVision, Milpitas, CA, USA). Following incubation of the mixture at 37°C for 2 h, fluorescence was measured with excitation/emission wavelengths at 400/505 nm (FLx800 fluorescence microplate reader). In addition, the collected cells were lysed by sonication. Acetylcholinesterase (AChE) activity in the supernatant was determined in 10 μg aliquots of cell extracts using the AChE activity assay kit (Sigma-Aldrich) according to the manufacture's protocol. Finally, the absorbance at 412 nm was measured using a Multiskan GO spectrophotometer (Thermo Fisher Scientific).

Aβ-GFP SH-SY5Y cells = test: Western blot in Aβ-GFP SH-SY5Y cells; assay type: cell-based, Human; settings: LM-021 5 μM, immunoblot
Protocol: (§1) To monitor the cAMP-mediated signal transduction pathway, CRE-GFP 293 cells in 6-well plates (1 × 10^6/well) were pretreated with kinase inhibitor H-89 (LC Laboratories, Woburn, MA, USA), KN-62 (Cayman Chemical, Ann Arbor, MI, USA), U0126 (LC Laboratories), or wortmannin (LC Laboratories) (10 μM) for 4 h before forskolin or LM-021 (10 μM) addition for 5 h. GFP fluorescence/protein and total/phosphorylated PKA, CaMKII, ERK, PI3K, and CREB levels were examined. In addition, Aβ-GFP or ∆K280 tauRD-DsRed SH-SY5Y cells were treated with retinoic acid (10 μM) on day 1, followed by the addition of LM-021 (5 or 10 μM) and doxycycline (5 or 2 μg/ml) on day 2, as described. Kinase inhibitors (10 μM) were added on day 6. On day 8, the cells were collected for protein expression analysis of BDNF, BCL2 (BCL2 apoptosis regulator), and BAX (BCL2 associated X, apoptosis regulator), and total/phosphorylated PKA, CaMKII, ERK, PI3K, and CREB. Also, cells were stained with DAPI and assessed for neurite outgrowth as described above.
(§2) Total proteins from CRE-GFP 293 and Aβ-GFP, ∆K280 tauRD-DsRed SH-SY5Y cells were extracted using lysis buffer (50 mM Tris-HCl (pH 8.0), 150 mM NaCl, 1 mM EDTA (pH 8.0), 1 mM EGTA (pH 8.0), 0.1% SDS, 0.5% sodium deoxycholate, 1% Triton X-100) containing phosphatase and protease inhibitor cocktails (Sigma-Aldrich). Protein concentrations were measured using a protein assay kit (Bio-Rad, Hercules, CA, USA), and 20 μg of proteins was separated with 10% SDS-PAGE and blotted onto polyvinylidene difluoride (PVDF) membranes (Sigma-Aldrich). After blocking, the membrane blot was incubated with primary antibody against GFP (1 : 500; Santa Cruz Biotechnology, Santa Cruz, CA, USA), PKA (1 : 1000; R&D Systems, Minneapolis, MN, USA), p-PKA (T197) (1 : 1000; Cell Signaling, Danvers, MA, USA), ERK (1 : 500; Cell Signaling), p-ERK (T202/Y204) (1 : 500; Cell Signaling), CaMKII (1 : 1000; Santa Cruz Biotechnology), p-CaMKII (T286) (1 : 1000; Cell Signaling), CREB (1 : 1000; Santa Cruz Biotechnology), p-CREB (S133) (1 : 1000; Millipore, Billerica, MA, USA), BDNF (1 : 500; Santa Cruz Biotechnology), BCL2 (1 : 500; BioVision), BAX (1 : 500; BioVision), GAPDH (glyceraldehyde-3-phosphate dehydrogenase, as a loading control) (1 : 1000; MDBio, Taipei, Taiwan), or β-tubulin (1 : 1000, Sigma-Aldrich, as a loading control). The immune complexes were visualized using horseradish peroxidase-conjugated goat anti-mouse or goat anti-rabbit IgG antibody (1 : 5000, GeneTex, Irvine, CA, USA) and a chemiluminescent substrate (Millipore).

[2] = tested on: ∆K280 tauRD-DsRed SH-SY5Y cells; test: Western blot in ΔK280 tauRD-DsRed SH-SY5Y cells; assay type: cell-based, Human; settings: LM-021 10 μM, immunoblot
Protocol: as §1, §2

[3] = tested on: ∆K280 tauRD-DsRed SH-SY5Y cells; test: High content analysis of neurite outgrowth in ΔK280 tauRD-DsRed cells; assay type: cell-based, Human; settings: 10 μM

CN(C)c1ccc(/C=C/C(=O)c2c(O)c3ccccc3oc2=O)cc1 [LM-021, (E)-3-(3-(4-(dimethylamino)phenyl)acryloyl)-4-hydroxy-2H-chromen-2-one]
AChE activity [1]: reduced
BAX protein levels (Aβ-GFP SH-SY5Y cells): reduced
PKA and ERK protein levels (Aβ-GFP SH-SY5Y cells): rescued the reduction in PKA and ERK, although not significantly
p-CREB, CREB, pro-BDNF, m-BDNF, and BCL2 protein levels (Aβ-GFP SH-SY5Y cells): significantly increased
p-PKA, p-CaMKII, and p-ERK protein levels (Aβ-GFP SH-SY5Y cells): significantly upregulated
BAX protein level [2]: decreased
Level of PKA, CaMKII, or ERK [2]: nor LM-021 treatment significantly altered
p-CREB, CREB, pro-BDNF, m-BDNF, and BCL2 protein levels [2]: significantly upregulated
p-PKA, p-CaMKII, and p-ERK protein levels [2]: increased
Neurite length and branches [3]: successfully ameliorated; also recorded: ameliorated the defects
